Test results: patent publication US20240025849A1 (MAX DELBRÜCK-CENTRUM FÜR MOLEKULARE MEDIZIN IN DER …, priority 2020, published 2024)
“Also recorded” adds a separate entry of the source.

How the values were obtained:
[1] = test system: oligodendrocyte cell line OLN-93; test: Propidium iodide based proliferation and cell death assay in OLN-93 cells; conditions: 2.5 μM C1, 48 hours, unstimulated
Protocol: (§1) Cell culture of immortalized cell lines: microglia cell line BV2, and oligodendrocyte cell line OLN-93. The immortalized murine microglia cell line BV2 (Blasi et al., 1990) and the oligodendrocyte cell line OLN-93 (Richter-Landsberg and Heinrich, 1996) were incubated in T75 flasks with plain medium. The cells were split every 2 to 3 days at the dilution 1:10 before they reached confluence. To do so, the cells were washed twice with PBS, followed by up to 5 min of trypsination. The trypsination was stopped using plain medium. The cells were centrifuged at 300 g for 10 min at 4° C., the supernatant was discarded, and the cells were resuspended in new medium and seeded into a new flask.
Propidium iodide based proliferation and cell death assay. To determine the relative proliferation and cell death, the cells were seeded into a […], let adhere for 24 hours and afterwards treated for additional 48 hours. The supernatant was removed, and the cells were washed carefully with 37° C. […] The intensity of the propidium iodide signal of the dead cells was measured using a microplate reader. Afterwards, all cells were killed with a 10 min incubation of 10% DMSO and the propidium iodide signal of all cells was measured. […] The percentage of dead cells was calculated by dividing the dead-cell-signal by the all-cell-signal. Proliferation was calculated as a relative value to the plain medium control.

[2] = test system: oligodendrocyte cell line OLN-93; test: AlamarBlue assay in OLN-93 cells; format: cell-based; conditions: 2.5 μM C1, 48 hours, unstimulated
Protocol: as §1
AlamarBlue assay. Cells were seeded according to the protocols described above, after compounds and stimuli were added, the cells were washed once with HBSS (37° C.) and 100 μl of a 1:10 AlamarBlue (Thermo Fisher Scientific) dilution in plain medium was added. The conversion of resazurin to resorufin was measured by absorbance (absorbance wavelength of 570 nm and a reference wavelength of 600 nm) after 3 hours.
The inventors evaluated the metabolic activity, proliferation and cell death of primary cultured neonatal microglia, primary cultured neonatal astrocytes and the oligodendrocyte cell line OLN-93 under physiological conditions. […]

[3] = test system: primary cultured neonatal microglia; test: LPS induced NO release, HTS setup (Griess reagent); format: cell-based; conditions: Mus musculus, 1 h pre-treatment, 1 μg/ml LPS 48 h, read-out: IC50, LPS-induced production of NO
Protocol: Primary cultured neonatal microglia. For preparation of cultured neonatal microglia, P0-P3 mice were used. 10 brains were extracted, meninges and cerebellum were removed and put on ice with Hank's balanced salt solution (HBSS). The dissected brains were washed 3 times before adding 400 μL trypsin (0.1 mg/L) and DNAse (5 μg/L) in phosphate buffered saline (PBS). After 2 min of incubation with this solution, the reaction was blocked by adding plain medium. After removal of the medium, 1 mg DNAse was added and the cells were mechanically dissociated, with a Pasteur pipette followed by a glass pipette. The cells were centrifuged for 10 min at 129 g at 4° C. The supernatant was discarded. The pellet was resuspended in plain medium and plated (2.5 brains/flask) in Poly-L-Lysine coated flasks. […]
High throughput screening (HTS). […] Incubation with LPS and compounds was continued for 48 hours, followed by addition of 25 μl of 2-fold concentrated Griess reagent and absorbance reading at 540 nm in a plate reader (Safire2, Tecan, Maennedorf, Switzerland). Active compounds were identified by decreased Z-scores of the absorbance signal. […]
Concentration-dependent validation and viability determination. […] Each concentration was measured in duplicate. […] Finally, the resorufin fluorescence was detected at an excitation wavelength of 530 nm and emission of 570 nm. […]

## COc1ccc(NC(=O)C(NC(=O)C2CCCN2C(=O)OCc2ccccc2)c2ccc(OC)cc2)cc1 (stereo not shown) [C1]
[1]
  OLN-93 cell death rate: no significant effect
  proliferation of OLN-93 cells: did not show an effect; also recorded: Neither C1 nor DMSO changed the proliferation
[2]
  metabolic activity of OLN-93 cells: increased the metabolic activity in oligodendrocytes compared to DMSO (p=0.0431) but not compared to plain medium; also recorded: not affected
[3]
  IC50: 0.224 µM
